The experiment relates to NCI-H226 cells, a human mesothelioma cell line. The experiment can be described thus: Cell growth inhibitory effect, cell counting kit 8, 6 days. It is filed as cell-based. The note with it: 144 h, 6 days incubation. From the text: Cell growth inhibitory effect on human mesothelioma, human liver cancer, human ovarian cancer, and […]
NCI-H226 cells, a human mesothelioma cell line (ATCC, CRL-5826), NCI-H322 cells, a human lung cancer cell line (the European Collection of Authenticated Cell Cultures, 95111734), OVTOKO cells, a human ovarian cancer cell line (JCRB cell bank, JCRB1048) and HuH28, a human liver cancer cell line (JCRB cell bank, JCRB0426) were each subcultured by keeping the cell density under 80% in a RPMI1640 culture medium with 10% fetal bovine serum (FBS). NCI-H226 cells, NCI-H322 cells and SSP-25 cells were each suspended in the RPM11640 culture medium mentioned above, and plated to a 96-well flat-bottom plate at 500 cells/well in each well, and incubated at 37° C. in an incubator with 5% CO2 for one day. After the incubation, the evaluation of cell growth inhibitory activity was started. OVTOKO cells were suspended in the RPMI1640 culture medium mentioned above, and plated to a 96-well flat-bottom plate at 250 cells/well in each well, and incubated it at 37° C. in an incubator with 5% CO2 for one day. After the incubation, the evaluation of the cell growth inhibitory activity was started. The next day, a test compound was serially diluted to 5 times of its final concentration in the RPM11640 culture medium mentioned above, and the diluted solution was added to each well. In this case, the final concentration of DMSO in each well was adjusted to 0.1%. After the test compound was added, cells were incubated at 37° C. in an incubator with 5% CO2 for 6 days. At the addition of the test compound and 6 days after the addition, the cell counting measurement was performed using a cell counting kit 8 (made by DOJINDO) according to a protocol equivalent to DOJINDO's recommendation. A reagent contained in the kit was added to each plate and color reaction was performed for 2 or 3 hours at 37° C. in an incubator with 5% CO2. After the reaction, an absorbance at wavelength of 450 nm was measured using a microplate reader. A growth inhibition rate was calculated according to the following formula, from which the concentration of a test compound at which cell growth was inhibited by 50% (GI50 value) was determined.
(Tetrazolium dyes change colour on reduction, which living cells bring about.)

Where [1] appears, read: group 100 nmol/L to 1 μmol/L (upper bound given in μmol/L).

The GI50 is the concentration giving 50% growth inhibition. Low readings indicate more potent growth inhibition, high ones less potent growth inhibition.

As for `C=CC(=O)NC1COc2c(cc(Br)cc2Oc2ccc(C(F)(F)F)nc2)C1` (racemic) [Compound 153, N-(6-Bromo-8-[{6-(trifluoromethyl)pyridin-3-yl}oxy]chroman-3-yl) acrylamide], under setting [1], the GI50 was 100 to 1000 nM. `C=CC(=O)N[C@H]1C[C@@H](C)Oc2cc(Oc3ccc(C(F)(F)F)cc3)ccc21` (relative stereo) [Compound 19, cis-N-[2-Methyl-7-{4-(trifluoromethyl)phenoxy}chroman-4-yl]acrylamide]: the GI50 (group less than 100 nmol/L) is less than 100 nM. Under “group less than 100 nmol/L”, `C=CC(=O)N[C@H]1C[C@H](C)Oc2cc(Oc3ccc(C(F)(F)F)cc3)ccc21` (relative stereo) [Compound 20, trans-N-[2-Methyl-7-{4-(trifluoromethyl)phenoxy}chroman-4-yl]acrylamide] returned a GI50 of less than 100 nM. Under setting [1], `C=CC(=O)N[C@H]1CC[C@@H](Oc2ccccc2)c2ncccc21` (relative stereo) [Compound 67, cis-N-(8-Phenoxy-5,6,7,8-tetrahydroquinolin-5-yl)acrylamide] showed a GI50 of 100 to 1000 nM. On the same count and under the same terms, under `C=CC(=O)N[C@H]1CC[C@H](Oc2ccc(Cl)cc2)c2nc(OC)ccc21` (relative stereo) [Compound 81, trans-N-{8-(4-Chlorophenoxy)-2-methoxy-5,6,7,8-tetrahydroquinolin-5-yl}acrylamide] stands 100 to 1000 nM; under `C=CC(=O)N[C@H]1CC[C@@H](Oc2cnc(Cl)c(Cl)c2)c2nc(Cl)ccc21` (relative stereo) [Compound 181, cis-N-[2-Chloro-8-{(5,6-dichloropyridin-3-yl)oxy}-5,6,7,8-tetrahydroquinolin-5-yl]acrylamide], 100 to 1000 nM; under `C=CC(=O)N[C@H]1CC[C@@H](Oc2ccc(C(F)(F)F)cc2)c2nc(CC)ccc21` (relative stereo) [Compound 186, cis-N-[2-ethyl-8-{4-(trifluoromethyl)phenoxy}-5,6,7,8-tetrahydroquinolin-5-yl]acrylamide], 100 to 1000 nM.

`C=CC(=O)NC1CCOc2cc(Oc3ccccc3)ccc21` (stereo not shown) [Compound 1, N-(7-phenoxychroman-4-yl)acrylamide] showed a GI50 (group less than 100 nmol/L) of less than 100 nM.

In the case of `C=CC(=O)NC1CCOc2cc(Oc3ccc(Cl)cc3)ccc21` (stereo not shown) [Compound 3, N-{7-(4-Chlorophenoxy)chroman-4-yl}acrylamide], for the setting “group less than 100 nmol/L”, the GI50 was less than 100 nM. `C=CC(=O)NC1CCOc2cc(Oc3ccc(C(F)(F)F)c(Cl)n3)ccc21` (stereo not shown) [Compound 11, N-(7-[{6-Chloro-5-(trifluoromethyl)pyridin-2-yl}oxy]chroman-4-yl)acrylamide]: the GI50 (group less than 100 nmol/L) was less than 100 nM. Compound `C=CC(=O)NC1CCOc2cc(OCc3ccccc3)ccc21` (stereo not shown) [Compound 14, N-{7-(Benzyloxy)chroman-4-yl}acrylamide] displayed a GI50 under setting [1] of 100 to 1000 nM. Under setting [1], `C=CC(=O)NC1CCOc2cc(OCC3CCCCC3)ccc21` (stereo not shown) [Compound 16, N-{7-(Cyclohexylmethoxy)chroman-4-yl}acrylamide] displayed a GI50 of 100 to 1000 nM. The same measure, in the same setting: in the case of `C=CC(=O)NC1CCOc2cc(Oc3ccc(Cl)cc3)c(C)cc21` (stereo not shown) [Compound 23, N-{7-(4-Chlorophenoxy)-6-methylchroman-4-yl}acrylamide] it was 100 to 1000 nM; in that of `C=CC(=O)NC1CCOc2ccc(Oc3ccc(Cl)cc3)cc21` (stereo not shown) [Compound 24, N-{6-(4-Chlorophenoxy)chroman-4-yl}acrylamide], 100 to 1000 nM; in that of `C=CC(=O)NCC1CCOc2cc(Oc3ccc(Cl)cc3)ccc21` (stereo not shown) [Compound 26, N-[{7-(4-Chlorophenoxy)chroman-4-yl}methyl]acrylamide], 100 to 1000 nM.

For the compound `Cc1c(Oc2ccc(C(F)(F)F)cc2)ccc2c1OCCC2NC(=O)/C=C/C(F)(F)F` (stereo not shown) [Compound 29, (E)-4,4,4-Trifluoro-N-[8-methyl-7-{4-(trifluoromethyl)phenoxy}chroman-4-yl]-2-butenamide], the GI50 under setting [1] lay in the range of 100 to 1000 nM.

For the setting “group less than 100 nmol/L”, `C=CC(=O)NC1CCOc2c1ccc(Oc1ccc(Cl)cc1)c2F` (stereo not shown) [Compound 30, N-{7-(4-Chlorophenoxy)-8-fluorochroman-4-yl}acrylamide] displayed a GI50 of less than 100 nM. The same measure, in the same setting: under `C=CC(=O)NC1COc2cccc(Oc3ccc(Cl)cc3)c2C1` (stereo not shown) [Compound 34, N-{5-(4-Chlorophenoxy)chroman-3-yl}acrylamide] stands less than 100 nM; under `C=CC(=O)NC1COc2c(Oc3ccc(Cl)cc3)cccc2C1=O` (stereo not shown) [Compound 39, N-{8-(4-Chlorophenoxy)-4-oxochroman-3-yl}acrylamide], less than 100 nM; under `C=CC(=O)NC1COc2c(cccc2Oc2cccc(C(F)(F)F)c2)C1` (stereo not shown) [Compound 43, N-[8-{3-(Trifluoromethyl)phenoxy}chroman-3-yl]acrylamide], less than 100 nM. Same read-out and setting: in the case of `C=CC(=O)NC1COc2c(cccc2Oc2ccc(C(F)(F)F)cc2)C1` (stereo not shown) [Compound 44, N-[8-{4-(Trifluoromethyl)phenoxy}chroman-3-yl]acrylamide] it was less than 100 nM. The compound `C=CC(=O)NC1COc2c(cccc2Oc2ccc(Cl)nc2)C1` (stereo not shown) [Compound 49, N-[8-{(6-Chloropyridin-3-yl)oxy}chroman-3-yl]acrylamide] returned a GI50 under setting [1] of 100 to 1000 nM. In turn, `C=CC(=O)NC1COc2c(cccc2Oc2ccc(C(F)(F)F)cn2)C1` (stereo not shown) [Compound 50, N-(8-[{5-(Trifluoromethyl)pyridin-2-yl}oxy]chroman-3-yl)acrylamide] displayed a GI50 (group less than 100 nmol/L) of less than 100 nM.

`C=CC(=O)NC1COc2c(cccc2Oc2cnc(Cl)c(C)c2)C1` (stereo not shown) [Compound 56, N-[8-{(6-Chloro-5-methylpyridin-3-yl)oxy}chroman-3-yl]acrylamide] came in with a GI50 (group less than 100 nmol/L) of less than 100 nM. Compound `C=CC(=O)Nc1cnc(C)c(Oc2ccc(Cl)cc2)c1` [Compound 92, N-{5-(4-Chlorophenoxy)-6-methylpyridin-3-yl}acrylamide] gave a concentration for 50% growth inhibition (GI50) under setting [1] of 100 to 1000 nM. Turning to `C=CC(=O)Nc1cc(Oc2ccc(Cl)cc2)cnc1C` [Compound 93, N-{5-(4-Chlorophenoxy)-2-methylpyridin-3-yl}acrylamide], the GI50 under setting [1] lay in the range of 100 to 1000 nM.

`C=CC(=O)Nc1cncc(Oc2ccc(Cl)cc2)c1` [Compound 94, N-{5-(4-chlorophenoxy)pyridin-3-yl}acrylamide]: the GI50 under setting [1] fell in the range of 100 to 1000 nM. In the case of `C=CC(=O)Nc1cncc(Oc2ccc(OC(F)(F)F)cc2)c1` [Compound 100, N-[5-{4-(Trifluoromethoxy)phenoxy}pyridin-3-yl]acrylamide], the GI50 (group less than 100 nmol/L) was less than 100 nM. For the compound `C=CC(=O)Nc1cncc(Oc2cccc(OCC)c2)c1` [Compound 101, N-{5-(3-Ethoxyphenoxy)pyridin-3-yl}acrylamide], under setting [1], the GI50 fell in the range of 100 to 1000 nM. `C=CC(=O)Nc1cncc(Oc2ccc(OCC)cc2)c1` [Compound 102, N-{5-(4-Ethoxyphenoxy)pyridin-3-yl}acrylamide] had a GI50 under setting [1] of 100 to 1000 nM.

`C=CC(=O)Nc1cncc(Oc2ccc(OC(C)C)cc2)c1` [Compound 103, N-{5-(4-Isopropoxyphenoxy)pyridin-3-yl}acrylamide] registered a GI50 under setting [1] of 100 to 1000 nM. Still for that read-out and setting: in the case of `C=CC(=O)Nc1cncc(Oc2ccc(Cl)c(Cl)c2)c1` [Compound 105, N-{5-(3,4-Dichlorophenoxy)pyridin-3-yl}acrylamide] it was 100 to 1000 nM. Same read-out and setting: in the case of `C=CC(=O)Nc1ccc(Oc2ccc(Cl)cc2)c2ncccc12` [Compound 116, N-{8-(4-Chlorophenoxy)quinolin-5-yl}acrylamide] it was 100 to 1000 nM; in that of `C=CC(=O)Nc1ccc(OC2CCC(F)(F)CC2)c2ncccc12` [Compound 120, N-[8-{(4,4-Difluorocyclohexyl)oxy}quinolin-5-yl]acrylamide], 100 to 1000 nM; in that of `C=CC(=O)Nc1ccc(OCc2ccccc2)c2ncccc12` [Compound 123, N-{8-(Benzyloxy)quinolin-5-yl}acrylamide], 100 to 1000 nM. On to `C=CC(=O)NCc1ccc(Oc2cccc(Cl)c2)c2ncccc12` [Compound 133, N-[{8-(3-chlorophenoxy)quinolin-5-yl}methyl]acrylamide], for which, for the setting “group less than 100 nmol/L”, the GI50 was less than 100 nM.

Compound `C=CC(=O)NCc1ccc(Oc2ccc(C3CC3)cc2)c2ncccc12` [Compound 136, N-[{8-(4-Cyclopropylphenoxy)quinolin-5-yl}methyl]acrylamide] had a GI50 under setting [1] of 100 to 1000 nM. In the case of `C=CC(=O)NCc1ccc(Oc2ccc(Cl)nc2)c2ncccc12` [Compound 142, N-([8-{(6-Chloropyridin-3-yl)oxy}quinolin-5-yl]methyl)acrylamide], the GI50 under setting [1] lay within 100 to 1000 nM. Under setting [1], `C=CC(=O)NCc1cc(Oc2ccc(Cl)cc2)nc2ccccc12` [Compound 144, N-[{2-(4-Chlorophenoxy)quinolin-4-yl}methyl]acrylamide] yielded a GI50 of 100 to 1000 nM.

Compound `C=CC(=O)NCc1cc(Oc2ccc(C(F)(F)F)cc2)nc2ccccc12` [Compound 146, N-([2-{4-(Trifluoromethyl)phenoxy}quinolin-4-yl]methyl)acrylamide] came in with a GI50 under setting [1] of 100 to 1000 nM.

The values are drawn from patent US11332455B2, “α,β-unsaturated amide compound” (KYOWA KIRIN CO., LTD., priority 2015, dated 2022).
